Key:
[1] = molecular target: Phosphatidylinositol 4,5-bisphosphate 3-kinase catalytic subunit alpha isoform (Homo sapiens, UniProt P42336); assay: Inhibition of PI3Kalpha (unknown origin) by ADP-Glo luminescent kinase assay
[2] = test system: MCF7; assay: Antiproliferative activity against human MCF7 cells assessed as reduction in cell viability incubated for 24 to 48 hrs by CCK-8 assay; type: functional, cell-based
[3] = test system: HCT-116; assay: Antiproliferative activity against human HCT-116 cells assessed as reduction in cell viability incubated for 24 to 48 hrs by CCK-8 assay; type: functional, cell-based
[4] = test system: MDA-MB-231; assay: Antiproliferative activity against human MDA-MB-231 cells assessed as reduction in cell viability incubated for 24 to 48 hrs by CCK-8 assay; type: functional, cell-based
[5] = test system: SW-620; assay: Antiproliferative activity against human SW-620 cells assessed as reduction in cell viability incubated for 24 to 48 hrs by CCK-8 assay; type: functional, cell-based
[6] = molecular target: Phosphatidylinositol 4,5-bisphosphate 3-kinase catalytic subunit beta isoform (Homo sapiens, UniProt P42338); assay: Inhibition of PI3Kbeta (unknown origin) by ADP-Glo luminescent kinase assay
[7] = molecular target: T1, Phosphatidylinositol 4,5-bisphosphate 3-kinase catalytic subunit delta isoform (Homo sapiens, UniProt O00329); assay: Inhibition of PI3Kdelta (unknown origin) by ADP-Glo luminescent kinase assay
T1 sequence (O00329 whole entry): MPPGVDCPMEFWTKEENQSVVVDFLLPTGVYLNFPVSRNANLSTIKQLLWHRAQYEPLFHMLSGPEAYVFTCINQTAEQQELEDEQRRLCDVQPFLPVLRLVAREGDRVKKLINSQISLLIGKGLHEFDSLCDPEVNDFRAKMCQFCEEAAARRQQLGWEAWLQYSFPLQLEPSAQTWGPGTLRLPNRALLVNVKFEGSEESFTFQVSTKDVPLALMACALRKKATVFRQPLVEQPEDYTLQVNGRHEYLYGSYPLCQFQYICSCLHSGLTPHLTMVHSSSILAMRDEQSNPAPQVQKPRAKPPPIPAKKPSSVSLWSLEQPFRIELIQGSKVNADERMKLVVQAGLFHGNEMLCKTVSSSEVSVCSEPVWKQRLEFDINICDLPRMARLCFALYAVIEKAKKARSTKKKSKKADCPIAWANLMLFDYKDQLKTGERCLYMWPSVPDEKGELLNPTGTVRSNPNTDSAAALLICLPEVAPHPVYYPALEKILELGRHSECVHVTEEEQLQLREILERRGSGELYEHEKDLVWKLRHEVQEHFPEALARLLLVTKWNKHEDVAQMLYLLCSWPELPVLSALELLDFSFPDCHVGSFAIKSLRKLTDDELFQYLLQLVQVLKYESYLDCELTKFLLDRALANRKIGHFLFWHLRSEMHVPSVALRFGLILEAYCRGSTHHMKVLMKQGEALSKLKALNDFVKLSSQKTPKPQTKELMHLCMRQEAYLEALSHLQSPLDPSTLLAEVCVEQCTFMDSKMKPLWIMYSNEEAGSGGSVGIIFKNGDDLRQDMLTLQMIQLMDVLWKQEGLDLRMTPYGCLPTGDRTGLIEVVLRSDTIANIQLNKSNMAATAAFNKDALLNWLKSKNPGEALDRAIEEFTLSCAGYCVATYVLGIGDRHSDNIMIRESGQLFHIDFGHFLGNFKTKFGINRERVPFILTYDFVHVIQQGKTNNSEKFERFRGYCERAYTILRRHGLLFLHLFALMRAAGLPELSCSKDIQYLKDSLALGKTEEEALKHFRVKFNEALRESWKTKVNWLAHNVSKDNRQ

[8] = molecular target: Phosphatidylinositol 4,5-bisphosphate 3-kinase catalytic subunit gamma isoform (Homo sapiens, UniProt P48736); assay: Inhibition of PI3Kgamma (unknown origin) by ADP-Glo luminescent kinase assay
Chain of Phosphatidylinositol 4,5-bisphosphate 3-kinase catalytic subunit gamma isoform (P48736 whole entry, canonical isoform): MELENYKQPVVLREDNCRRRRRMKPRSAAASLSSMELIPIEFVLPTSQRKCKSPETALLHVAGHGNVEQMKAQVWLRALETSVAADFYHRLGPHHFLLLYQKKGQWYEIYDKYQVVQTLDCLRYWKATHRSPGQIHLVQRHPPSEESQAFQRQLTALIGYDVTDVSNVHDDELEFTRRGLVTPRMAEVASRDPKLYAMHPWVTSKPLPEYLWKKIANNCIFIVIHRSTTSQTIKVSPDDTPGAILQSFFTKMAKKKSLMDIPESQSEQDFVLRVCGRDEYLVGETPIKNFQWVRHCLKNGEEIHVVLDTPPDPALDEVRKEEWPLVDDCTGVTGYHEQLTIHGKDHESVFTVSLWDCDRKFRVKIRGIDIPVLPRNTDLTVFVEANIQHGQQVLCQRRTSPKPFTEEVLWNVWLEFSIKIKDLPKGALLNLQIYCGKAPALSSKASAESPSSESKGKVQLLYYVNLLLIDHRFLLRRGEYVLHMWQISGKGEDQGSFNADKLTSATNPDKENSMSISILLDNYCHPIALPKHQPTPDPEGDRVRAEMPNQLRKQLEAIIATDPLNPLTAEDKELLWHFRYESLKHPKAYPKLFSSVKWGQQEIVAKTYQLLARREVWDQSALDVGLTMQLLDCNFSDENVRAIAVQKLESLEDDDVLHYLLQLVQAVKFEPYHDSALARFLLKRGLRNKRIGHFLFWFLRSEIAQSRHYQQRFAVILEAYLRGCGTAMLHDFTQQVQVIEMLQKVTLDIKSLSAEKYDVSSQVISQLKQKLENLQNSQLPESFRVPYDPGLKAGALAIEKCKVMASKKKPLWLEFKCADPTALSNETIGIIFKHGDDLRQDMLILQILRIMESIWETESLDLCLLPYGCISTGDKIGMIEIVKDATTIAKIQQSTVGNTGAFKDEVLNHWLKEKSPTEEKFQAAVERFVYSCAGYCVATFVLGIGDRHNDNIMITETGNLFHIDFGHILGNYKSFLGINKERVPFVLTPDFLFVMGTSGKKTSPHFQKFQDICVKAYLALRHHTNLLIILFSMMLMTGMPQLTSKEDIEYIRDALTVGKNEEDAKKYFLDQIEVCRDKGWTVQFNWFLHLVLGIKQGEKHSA

Chain of Phosphatidylinositol 4,5-bisphosphate 3-kinase catalytic subunit alpha isoform (P42336 whole entry, canonical isoform): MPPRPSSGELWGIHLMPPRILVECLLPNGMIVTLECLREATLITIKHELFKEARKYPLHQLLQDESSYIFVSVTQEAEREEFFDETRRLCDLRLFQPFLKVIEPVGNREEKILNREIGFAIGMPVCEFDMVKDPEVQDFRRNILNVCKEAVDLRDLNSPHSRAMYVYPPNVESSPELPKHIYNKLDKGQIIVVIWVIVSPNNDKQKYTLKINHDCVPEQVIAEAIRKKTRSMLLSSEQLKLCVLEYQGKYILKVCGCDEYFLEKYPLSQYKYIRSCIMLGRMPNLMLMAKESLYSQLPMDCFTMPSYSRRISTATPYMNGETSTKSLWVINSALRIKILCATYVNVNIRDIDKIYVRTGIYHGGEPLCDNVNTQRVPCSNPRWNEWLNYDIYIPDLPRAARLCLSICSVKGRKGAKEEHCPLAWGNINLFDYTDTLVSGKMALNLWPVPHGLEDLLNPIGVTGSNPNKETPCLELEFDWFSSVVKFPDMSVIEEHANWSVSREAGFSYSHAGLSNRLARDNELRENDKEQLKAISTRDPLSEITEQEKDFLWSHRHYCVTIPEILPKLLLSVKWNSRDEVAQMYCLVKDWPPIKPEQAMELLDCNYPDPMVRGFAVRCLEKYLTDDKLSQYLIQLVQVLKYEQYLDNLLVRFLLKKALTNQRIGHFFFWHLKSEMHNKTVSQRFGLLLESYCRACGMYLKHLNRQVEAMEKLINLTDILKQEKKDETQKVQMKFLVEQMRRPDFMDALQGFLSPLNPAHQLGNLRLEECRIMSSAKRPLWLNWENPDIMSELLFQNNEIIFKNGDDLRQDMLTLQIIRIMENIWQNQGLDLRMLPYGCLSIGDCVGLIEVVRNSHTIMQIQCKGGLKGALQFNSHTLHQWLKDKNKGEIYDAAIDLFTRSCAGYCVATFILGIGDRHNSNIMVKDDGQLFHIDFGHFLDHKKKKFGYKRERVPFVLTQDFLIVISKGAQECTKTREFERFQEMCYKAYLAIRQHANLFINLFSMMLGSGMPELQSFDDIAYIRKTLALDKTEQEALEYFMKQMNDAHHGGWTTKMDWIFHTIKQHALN
Chain of Phosphatidylinositol 4,5-bisphosphate 3-kinase catalytic subunit beta isoform (P42338 whole entry, canonical isoform): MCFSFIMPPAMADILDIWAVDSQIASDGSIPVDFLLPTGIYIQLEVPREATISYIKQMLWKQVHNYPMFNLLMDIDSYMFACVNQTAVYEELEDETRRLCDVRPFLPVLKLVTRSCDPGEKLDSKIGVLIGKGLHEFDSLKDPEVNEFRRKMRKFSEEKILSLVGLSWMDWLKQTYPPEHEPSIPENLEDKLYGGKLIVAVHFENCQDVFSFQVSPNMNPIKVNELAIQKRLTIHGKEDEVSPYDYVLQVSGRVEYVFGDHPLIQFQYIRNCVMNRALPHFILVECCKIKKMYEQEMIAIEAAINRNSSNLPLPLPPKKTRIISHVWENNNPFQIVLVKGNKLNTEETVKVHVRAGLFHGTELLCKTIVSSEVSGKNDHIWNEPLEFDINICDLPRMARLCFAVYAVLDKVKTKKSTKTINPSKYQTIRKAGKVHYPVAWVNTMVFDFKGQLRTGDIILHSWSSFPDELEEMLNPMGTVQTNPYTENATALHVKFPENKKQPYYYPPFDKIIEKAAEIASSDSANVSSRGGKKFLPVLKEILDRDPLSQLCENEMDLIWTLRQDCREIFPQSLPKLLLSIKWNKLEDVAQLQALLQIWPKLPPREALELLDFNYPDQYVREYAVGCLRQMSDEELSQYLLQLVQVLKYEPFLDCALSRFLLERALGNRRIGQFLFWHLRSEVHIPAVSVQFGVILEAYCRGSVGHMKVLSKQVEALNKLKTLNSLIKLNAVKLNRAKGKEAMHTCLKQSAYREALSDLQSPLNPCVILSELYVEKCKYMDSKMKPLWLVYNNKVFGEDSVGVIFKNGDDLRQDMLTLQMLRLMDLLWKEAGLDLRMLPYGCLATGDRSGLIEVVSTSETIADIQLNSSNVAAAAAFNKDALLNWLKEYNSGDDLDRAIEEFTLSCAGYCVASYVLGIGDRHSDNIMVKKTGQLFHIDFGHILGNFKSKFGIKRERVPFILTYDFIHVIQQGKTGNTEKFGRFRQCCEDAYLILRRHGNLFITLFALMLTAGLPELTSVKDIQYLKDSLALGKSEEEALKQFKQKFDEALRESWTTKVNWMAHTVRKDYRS

Structure (SMILES) | IC50 [1] | IC50 [2] | IC50 [3] | IC50 [4] | IC50 [5] | IC50 [6] | IC50 [7] | IC50 [8]
C[C@H](NC(=O)c1cnc2ccc(-c3ccc4oc(N)nc4c3)cn12)C(=O)O | > 10 µM |  |  |  |  |  |  | 
CN(C)C1CCN(C(=O)c2cnc3ccc(-c4ccc5oc(N)nc5c4)cn23)C1 (stereo unspecified) | 0.0108 µM | 15.1 µM | 6.05 µM | 12.3 µM | 11 µM |  |  | 
NC(=O)C(NC(=O)c1cnc2ccc(-c3ccc4oc(N)nc4c3)cn12)c1ccccc1 (stereo unspecified) | 0.0193 µM | 16.2 µM | 34 µM | > 100 µM | 37.8 µM |  |  | 
Nc1nc2cc(-c3ccc4ncc(C(=O)N5C[C@H]6OCCO[C@@H]6C5)n4c3)ccc2o1 (single isomer, unassigned) | 0.0088 µM | 5.89 µM | 7.95 µM | 10.8 µM | 13.5 µM |  |  | 
NC(=O)[C@H](NC(=O)c1cnc2ccc(-c3ccc4oc(N)nc4c3)cn12)c1ccccc1 | 0.0231 µM | 12.2 µM | 7.3 µM | > 100 µM | 49.9 µM |  |  | 
Nc1nc2cc(-c3ccc4ncc(C(=O)N5CCNCC5)n4c3)ccc2o1 | 0.138 µM |  |  |  |  |  |  | 
CCC(NC(=O)c1cnc2ccc(-c3ccc4oc(N)nc4c3)cn12)C(=O)OC (stereo unspecified) | 0.807 µM | > 100 µM | > 100 µM | > 100 µM | > 100 µM |  |  | 
NC(=O)[C@@H]1CCCN1C(=O)c1cnc2ccc(-c3ccc4oc(N)nc4c3)cn12 | 0.0181 µM | 2.18 µM | 10 µM | 25 µM | 12 µM |  |  | 
C[C@H](NC(=O)c1cnc2ccc(-c3ccc4oc(N)nc4c3)cn12)C(N)=O | 0.0046 µM | 1.81 µM | 7.05 µM | 20.8 µM | 11.3 µM | 0.818 µM | 0.115 µM | 0.233 µM
NC(=O)CNc1cnc2cc(-c3ccc4oc(N)nc4c3)ccc2n1 | 0.476 µM |  |  |  |  |  |  | 
Nc1nc2cc(-c3ccc4nc(N5C[C@@H]6OCCO[C@@H]6C5)cnc4c3)ccc2o1 | 1.64 µM |  |  |  |  |  |  | 
Nc1nc2ccc(-c3ccc4ncc(C(=O)N5CCOC(CO)C5)n4c3)cc2o1 (single isomer, unassigned) | 0.0186 µM | 19 µM | 14.5 µM | 17.2 µM | > 100 µM |  |  | 
C[C@@H](NC(=O)c1cnc2ccc(-c3ccc4oc(N)nc4c3)cn12)C(N)=O | > 10 µM | 36.1 µM | > 100 µM | > 100 µM | > 100 µM |  |  | 
NC(=O)CNc1ncnc2ccc(-c3ccc4oc(N)nc4c3)cc12 | 0.0255 µM |  |  |  |  |  |  | 
CN(C)C1CCN(C(=O)c2cnc3ccc(-c4ccc5oc(N)nc5c4)cn23)CC1 | 0.0282 µM | 3.36 µM | 4.03 µM | > 100 µM | 32 µM |  |  | 
C[C@H](Nc1cnc2ccc(-c3ccc4oc(N)nc4c3)cc2n1)C(N)=O | 0.499 µM | 10.5 µM | 25.4 µM | 15.3 µM | 60.2 µM |  |  | 
NC(=O)[C@@H](NC(=O)c1cnc2ccc(-c3ccc4oc(N)nc4c3)cn12)c1ccccc1 | 0.014 µM | 9.83 µM | 9.39 µM | 21 µM | 17.1 µM |  |  | 
NC(=O)CNc1cnc2ccc(-c3ccc4oc(N)nc4c3)cc2n1 | 0.0038 µM | 5.59 µM | 4.56 µM | 10.2 µM | 24.9 µM |  |  | 
Nc1nc2cc(-c3ccc4ncc(C(=O)N5C[C@@H]6OCCO[C@@H]6C5)n4c3)ccc2o1 | 0.0072 µM | 2.28 µM | 5.31 µM | 12.4 µM | 7.16 µM |  |  | 
COC1CCN(C(=O)c2cnc3ccc(-c4ccc5oc(N)nc5c4)cn23)C1 (stereo unspecified) | 9.68 µM |  |  |  |  |  |  | 
C[C@H](Nc1ncnc2ccc(-c3ccc4oc(N)nc4c3)cc12)C(N)=O | 0.0185 µM | > 100 µM | > 100 µM | > 100 µM | > 100 µM |  |  | 
Nc1nc2cc(-c3ccc4ncc(NCC(=O)NO)nc4c3)ccc2o1 | 0.107 µM |  |  |  |  |  |  | 
CCOC(=O)[C@H](C)NC(=O)c1cnc2ccc(-c3ccc4oc(N)nc4c3)cn12 | > 10 µM | > 100 µM | > 100 µM | > 100 µM | > 100 µM |  |  | 
Nc1nc2cc(-c3ccc4ncc(N5C[C@@H]6OCCO[C@H]6C5)nc4c3)ccc2o1 | 0.603 µM |  |  |  |  |  |  | 
NC(=O)[C@H](Cc1ccc(O)cc1)NC(=O)c1cnc2ccc(-c3ccc4oc(N)nc4c3)cn12 | 3.52 µM | 14.7 µM | > 100 µM | > 100 µM | 28.8 µM |  |  | 
NC(=O)[C@H](Cc1ccccc1)NC(=O)c1cnc2ccc(-c3ccc4oc(N)nc4c3)cn12 | 0.0112 µM | 18.8 µM | 7.72 µM | 18.2 µM | 8.4 µM |  |  | 
